Data: patent publication EP0523769B1, “Gram-positive alkaliphilic microorganisms” (GENENCOR INTERNATIONAL, INC., priority 1991, dated 1993)

Test system: Gram-positive alkaliphilic bacteria
Assay: Antibiotic sensitivity, susceptibility test discs (characters 84-105)
Assay type: cell-based

| Compound | Percentage Positive States, antibiotic sensitivity (CLUSTER 1) [%] | Percentage Positive States, antibiotic sensitivity (CLUSTER 2) [%] | Percentage Positive States, antibiotic sensitivity (CLUSTER 3) [%] | Percentage Positive States, antibiotic sensitivity (CLUSTER 4) [%] | Percentage Positive States, antibiotic sensitivity (CLUSTER 5) [%] | Percentage Positive States, antibiotic sensitivity (CLUSTER 6) [%] |
| --- | --- | --- | --- | --- | --- | --- |
| NC[C@@H]1O[C@H](O[C@H]2[C@@H](O)[C@H](O[C@@H]3[C@@H](O)[C@H](N)C[C@H](N)[C@H]3O[C@H]3O[C@H](CN)[C@@H](O)[C@H](O)[C@H]3N)O[C@@H]2CO)[C@H](N)[C@@H](O)[C@@H]1O [Neomycin] | 0 | 0 | 0 | 50 | 17 | 0 |
| Gentamycin | 60 | 0 | 50 | 50 | 50 | 25 |
| Polymixin | 40 | 20 | 0 | 0 | 0 | 0 |
| Tetracyclin | 80 | 60 | 0 | 100 | 100 | 25 |
